Laboratory results as given in patent US5981520A, “Piperazino derivatives as neurokinin antagonists” (Schering Corporation, priority 1998, dated 1999).

Columns and labels:
[1] = target: T1, human neurokinin 1 (NK1) receptor (Homo sapiens, UniProt P25103); experiment: Neurokinin receptor binding assay, NK1 ([3H]-Substance P, CHO membranes); details: for Ki: racemic compounds except specifically defined enantiomers
T1 construct: expressed in transfected cells; host or cells: Chinese Hamster ovary (CHO) cells
T1 sequence (P25103 whole entry): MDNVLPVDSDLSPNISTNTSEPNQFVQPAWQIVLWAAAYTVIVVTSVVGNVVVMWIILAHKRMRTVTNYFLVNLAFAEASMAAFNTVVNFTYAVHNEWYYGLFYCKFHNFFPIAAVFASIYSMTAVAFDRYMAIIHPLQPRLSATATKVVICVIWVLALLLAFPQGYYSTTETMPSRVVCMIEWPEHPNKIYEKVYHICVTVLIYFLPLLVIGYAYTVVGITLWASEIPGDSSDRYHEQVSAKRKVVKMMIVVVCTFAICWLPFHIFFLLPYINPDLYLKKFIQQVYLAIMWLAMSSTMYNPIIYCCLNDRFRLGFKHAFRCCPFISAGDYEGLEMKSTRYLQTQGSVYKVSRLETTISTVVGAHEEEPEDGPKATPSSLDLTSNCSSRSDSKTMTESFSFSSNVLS
Protocol: (§1) Chinese Hamster ovary (CHO) cells transfected with the coding regions for the human neurokinin 1 (NK1) of the human neurokinin 2 (NK2) receptors are grown in Dulbecco's minimal essential medium supplemented with 10% fetal calf serum, 0.1 mM non-essential amino acids, 2 mM glutamine, 100 units/ml of penicillin and streptomycin, and 0.8 mg of G418/ml at 37° C. in a humidified atmosphere containing 5% CO2.
(§2) Cells are harvested by centrifugation and washed in RPMI media at […] for 5 minutes. The pellet is resuspended inTris-HCl (pH7.4) containing 1 uM phosphoramidon and 4 ug/ml of chymostatin at a cell density of 30×10^6 cells/ml. The suspension is then homogenized in a Brinkman Polytron (setting 5) for 30-45 seconds. The homogenate is centrifuged at 800×g for 5 min at 4° C. to collect unbroken cells and nuclei. The supematant is centrifuged in a Sorvall RC5C at 19,000 rpm ([…]) for 30 min at 4° C. The pellet is resuspended, an aliquot is removed for a protein determination (BCA) and washed again. The resulting pellet is stored at -80° C.
(§3) Binding is initiated by the addition of 100 μl of membrane (10-20 μg) containing the human NK-1 or NK-2 receptor in a final volume of 200 μl. After 40 minutes at room temperature, the reaction is stopped by rapid filtration onto Whatman GF/C filters which have been presoaked in 0.3% polyethylenimine. Filters are washed 2 times with 3 ml of 50 mM Tris-HCl (pH7.4).

[2] = target: T2, human neurokinin 2 (NK2) receptor (Homo sapiens, UniProt P21452); experiment: Neurokinin receptor binding assay, NK2 ([3H]-Neurokinin A, CHO membranes); details: for Ki: racemic compounds except specifically defined enantiomers
T2 construct: expressed in transfected cells; host or cells: Chinese Hamster ovary (CHO) cells
T2 sequence (P21452 1-398): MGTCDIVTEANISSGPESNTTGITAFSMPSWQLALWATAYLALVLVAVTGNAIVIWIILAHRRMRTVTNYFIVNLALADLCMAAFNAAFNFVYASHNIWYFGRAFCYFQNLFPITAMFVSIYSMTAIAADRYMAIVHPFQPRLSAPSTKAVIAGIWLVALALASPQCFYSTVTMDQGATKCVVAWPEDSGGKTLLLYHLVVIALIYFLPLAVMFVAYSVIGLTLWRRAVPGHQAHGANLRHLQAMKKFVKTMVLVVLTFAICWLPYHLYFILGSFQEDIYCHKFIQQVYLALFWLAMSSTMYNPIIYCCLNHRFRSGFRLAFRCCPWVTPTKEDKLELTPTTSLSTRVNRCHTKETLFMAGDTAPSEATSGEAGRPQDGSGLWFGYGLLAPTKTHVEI
Protocol: as §1, §2, §3

NK3 = target: T3, NK3 (Homo sapiens, UniProt P29371); experiment: NK3 radioligand receptor binding assay as described in the literature; details: racemic compounds except specifically defined enantiomers
T3 sequence (P29371 1-465): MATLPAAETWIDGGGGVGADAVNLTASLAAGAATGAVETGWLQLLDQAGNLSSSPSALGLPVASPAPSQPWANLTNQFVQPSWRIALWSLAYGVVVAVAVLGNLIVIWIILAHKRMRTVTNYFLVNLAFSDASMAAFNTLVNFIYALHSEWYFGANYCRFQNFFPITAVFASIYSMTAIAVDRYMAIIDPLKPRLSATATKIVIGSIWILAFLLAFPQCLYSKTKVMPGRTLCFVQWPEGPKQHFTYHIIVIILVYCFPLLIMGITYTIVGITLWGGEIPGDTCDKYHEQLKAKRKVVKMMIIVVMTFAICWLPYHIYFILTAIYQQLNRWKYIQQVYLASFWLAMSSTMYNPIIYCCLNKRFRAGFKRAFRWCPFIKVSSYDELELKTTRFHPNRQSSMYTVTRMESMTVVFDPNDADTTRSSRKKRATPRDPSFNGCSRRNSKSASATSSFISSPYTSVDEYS

Compound | Ki [1] | inhibition at 1 µM [2] | Ki [2] | Ki (NK3) | inhibition at 1 µM [1]
CN(CC(=O)N1CCN(Cc2cc(C(F)(F)F)cc(C(F)(F)F)c2)CC1c1ccc(Cl)c(Cl)c1)C1CCN(Cc2ccccc2)CC1 (stereo not drawn) | 74 nM | 7% | – | – | –
Cc1cc(C)cc(C(=O)N2CCN(C(=O)C[N+](C)(C)C3CCN(Cc4ccccc4)CC3)C(c3ccc(Cl)c(Cl)c3)C2)c1 (stereo not drawn) | 0.58 nM | – | 93 nM | – | –
O=C(c1ccccc1)N1CCN(C(=O)CNC2CCN(Cc3ccccc3)CC2)C(c2ccc(Cl)c(Cl)c2)C1 (stereo not drawn) | 93 nM | – | 3.4 nM | – | –
O=C(c1cc(C(F)(F)F)cc(C(F)(F)F)c1)N1CCN(C(=O)CNC2CCN(Cc3ccccc3)CC2)C(c2ccc(Cl)c(Cl)c2)C1 (stereo not drawn) | – | – | – | 433 nM | –
O=C(c1cc(O)cc(O)c1)N1CCN(C(=O)CNC2CCN(Cc3ccccc3)CC2)C(c2ccc(Cl)c(Cl)c2)C1 (stereo not drawn) | – | 22% | – | – | 14%
O=C(C1c2ccccc2Oc2ccccc21)N1CCN(C(=O)CNC2CCN(Cc3ccccc3)CC2)C(c2ccc(Cl)c(Cl)c2)C1 (stereo not drawn) | 117 nM | – | 187 nM | – | –
COc1ccc(C2CN(C(=O)c3cc(C(F)(F)F)cc(C(F)(F)F)c3)CCN2C(=O)CNC2CCN(Cc3ccccc3)CC2)cc1 (stereo not drawn) | 2.5 nM | – | 48 nM | – | –
CC(C)(C)c1cc(C(=O)N2CCN(C(=O)CNC3CCN(Cc4ccccc4)CC3)C(c3ccc(Cl)c(Cl)c3)C2)cc(C(C)(C)C)c1 (stereo not drawn) | 63 nM | – | 68 nM | – | –
